Measured values from patent publication US11607458B2 (Georgia State University Research Foundation, Inc, priority 2017, dated 2023).
Read-outs that look alike come from different tables or passages of the source.

Legend:
[1] = HPLC studies of reaction kinetics of tetrazine prodrugs with cyclooctyne alkynes (Kobs, second-order rate constant k2); assay type: physicochemical; details: alkyne 2b; 37° C.; PBS containing 10% DMSO; n = 3
Experimental: Stock solution preparation. Each of the tetrazine prodrugs (compounds 1b, 1c, and 1d) was dissolved in DMSO to afford a 500-μM stock solution. Each of the alkynes (compounds 2a, 2b, 2c, and 2d) was dissolved in DMSO to afford a 50-mM stock solution. Doxorubicin (Dox) and dansylamino compound (DA) 1.1b were each dissolved in DMSO to afford 1-mM stock solutions.
(§1) HPLC method A.: mobile phase A (10 mM NaH2PO4 in water, pH=5.0) and mobile phase B (ACN), flow rate: 1 mL/min, running time: 30 min, the gradient elution method: 25% B from 0 to 6 min, 25% to 50% B from 6 to 8 min, 50% B from 8 to 15 min, 50% to 99% B from 15 to 20 min, 99% B from 20 to 25 min, 99% to 25% B from 25 to 30 min. Detection wavelength: 256 nm. Column: Waters C18 3.5 μM, 4.6×100 mm. Injection volume: 20 μL.
as §1, with “method B:” for “method A.:”, “method: 30%” for “method: 25%”, “min, 30%” for “min, 25%”, “25 min.” for “25 min,”, “to 30%” for “to 25%”, “Detection wavelength 1: 256, detection wavelength 2: 337” for “Detection wavelength: 256”
General procedures HPLC studies of reaction kinetics. To three 20-ml vials with 9 mL PBS were added a solution of tetrazine prodrug (500 μL, 500 μM). 350 μL, 300 μL and 250 μL DMSO were added to vial respectively, and then 150 μL, 200 μL and 250 μL of the alkyne solution (50 mM in DMSO) were added to the vials to afford final concentrations of alkyne 0.75 mM, 1 mM and 1.25 mM in PBS (10% DMSO, 25 μM prodrug) respectively. The reaction was stirred at r.t or 37° C. respectively. Every 30 min about 500 μL reaction mixtures were taken out and 20 μL of them were injected into the HPLC by the autosampler; the rest of them were poured back to the reaction mixture. (Note: In the cases of prodrugs 1d or 1b reacting with alkyne 2d at 37° C., the final concentrations of 2d in the kinetic studies were 250 μM, 300 μM and 350 μM).
Determination of second-order rate constants. The reaction rate constant, kobs, was calculated for each concentration of the alkyne by fitting the prodrug areas versus time using eq. 1: Y=A exp(−kobst) eq. 1 where Y is the prodrug area, and t is time. The pseudo-first-order rate constant, kobs, was then plotted against the concentration of alkyne to yield the second-order rate constant using eq 2: kobs=k2[Alkyne] eq. 2 where k2 is the second-order rate constant.

HeLa cells = test: Cytotoxicity studies in HeLa cells (MTT assay / crystal violet assay); assay type: cell-based; details: for IC50: 48 h, read-out: IC50 in Hela cell line; for effect on cell viability: 20 μM alkyne alone, HeLa cells
Experimental: Cell cultures. HeLa cells (ATCC) were used in the following cell culture studies. HeLa cells were maintained in DMEM (Dulbecco's Modified Eagle's Medium) supplemented with 10% fetal bovine serum (MidSci; S01520HI), and 1% penicillin-streptomycin (Sigma-Aldrich; P4333) at 37° C. with 5% CO2.
Cytotoxicity studies. Test compound was dissolved in DMSO to afford a stock solution. The final concentration of DMSO in the cell culture was 1% (v/v) in PBS. HeLa cells were seeded in 96-well plates one day before the experiment. Different concentrations of prodrug was added into the cell culture. The cells were then incubated for 48 h at 37° C. with 5% CO2. The cell viability was tested by the MTT assay described in Levitz, S. M., et al. J Infect Dis 1985, 152, 938-945. Specifically, after 48 h of incubation, 5 mg/mL MTT (3-(4,5-dimethylthiazol-2-yl)-2,5-diphenyltetrazolium bromide) was added into the cell culture. After incubation for 4 h, the supernatant was removed and 100 μL DMSO was added into the wells containing the cells. After shaking gently for 3 min, absorbance at 605 nm was read by a plate reader.
Cytotoxicity studies using crystal violet assay. The test compound was dissolved in DMSO to afford a stock solution. The final concentration of DMSO in cell culture was 1% (v/v) in PBS. HeLa cells were seeded in 96-well plates one day before the experiment. Different concentrations of the test compound were added into the cell culture. The cells were then incubated for 48 h at 37° C. with 5% CO2. Cell viability was tested by the crystal violet assay. Specifically, after 48 h of incubation, the cells were fixed in 100% methanol for 10 min and stained for 20 min with a 1% crystal violet solution in 50% methanol, followed by 5 repeated washings with PBS. 50 μL of DMSO was added to each well. After 20 min of incubation, the plates were analyzed in a microplate reader at 595 nm.
Similar results were observed when the alkyne concentration was decreased to 10 μM. For example, the IC50 of TPP-Dox prodrug 1c was about 2 μM in the presence of 2b, while the IC50 for Dox prodrug 1b was well over 10 μM in the presence of 10 μM of the alkyne trigger 2a (FIG. 3a). As controls, both the IC50 values of 1c and 2b alone were higher than 40 μM, and the treatment of 20 μM of alkyne 2a or 2b alone had no effect on cell viability. […] Without such an enrichment, the reaction is expected to be slow, resulting in a lower level of active Dox being released. […] Thus, mitochondrial enrichment leads to triggered release of the drug. The same concept is applicable to the delivery of drugs through other targeting approaches such as receptor-mediated drug delivery.

[2] = Homo sapiens, HeLa, compound alone

## C#CCOc1ccc(-c2nnc(C(=O)O)nn2)cc1 [1a, 6-(4-(prop-2-yn-1-yloxy)phenyl)-1,2,4,5-tetrazine-3-carboxylic acid]
[1]
  k2 at 37° C. (second order rate constant): 0.25 M⁻¹ s⁻¹
HeLa cells; in the presence of 100 μM alkyne 2d
  IC50: > 100 µM

## O=C(O)c1ccc(CC2(O)C#CCCCCC2)cc1 (stereo not shown) [2a, 4-((1-hydroxycyclooct-2-yn-1-yl)methyl)benzoic acid]
HeLa cells
  effect on cell viability: no effect

## O=C(NCCC[P+](c1ccccc1)(c1ccccc1)c1ccccc1)c1ccc(CC2(O)C#CCCCCC2)cc1.[Br-] (stereo not shown) [2b, (3-(4-((1-hydroxycyclooct-2-yn-1-yl)methyl)benzamido)propyl)-triphenylphosphonium bromide]
HeLa cells
  effect on cell viability: no effect
HeLa cells; [2]
  IC50: > 40 µM
HeLa cells; compound alone, listed as Alkyne 2b
  IC50: > 50 µM

## COc1cccc2c1C(=O)c1c(O)c3c(c(O)c1C2=O)C[C@@](O)(C(=O)CO)C[C@@H]3O[C@H]1C[C@H](N)[C@H](O)[C@H](C)O1 [Dox, Doxorubicin, reference compound]
HeLa cells; [2]
  IC50: ~1 µM
